Data as given in publication PMC5540273, “Progress towards a public chemogenomic set for protein kinases and a call for contributions” (PLoS ONE, 2017).

Tests used:
Assay in all cases: KINOMEscan competition binding
ABL1-nonphosphorylated = ABL1-nonphosphorylated (Homo sapiens, UniProt P00519); conditions: read-out: %Inh ABL1-nonphosphorylated
MAK = target: T1, MAK (Homo sapiens, UniProt P20794); conditions: read-out: %Inh MAK
T1 sequence (P20794 1-623): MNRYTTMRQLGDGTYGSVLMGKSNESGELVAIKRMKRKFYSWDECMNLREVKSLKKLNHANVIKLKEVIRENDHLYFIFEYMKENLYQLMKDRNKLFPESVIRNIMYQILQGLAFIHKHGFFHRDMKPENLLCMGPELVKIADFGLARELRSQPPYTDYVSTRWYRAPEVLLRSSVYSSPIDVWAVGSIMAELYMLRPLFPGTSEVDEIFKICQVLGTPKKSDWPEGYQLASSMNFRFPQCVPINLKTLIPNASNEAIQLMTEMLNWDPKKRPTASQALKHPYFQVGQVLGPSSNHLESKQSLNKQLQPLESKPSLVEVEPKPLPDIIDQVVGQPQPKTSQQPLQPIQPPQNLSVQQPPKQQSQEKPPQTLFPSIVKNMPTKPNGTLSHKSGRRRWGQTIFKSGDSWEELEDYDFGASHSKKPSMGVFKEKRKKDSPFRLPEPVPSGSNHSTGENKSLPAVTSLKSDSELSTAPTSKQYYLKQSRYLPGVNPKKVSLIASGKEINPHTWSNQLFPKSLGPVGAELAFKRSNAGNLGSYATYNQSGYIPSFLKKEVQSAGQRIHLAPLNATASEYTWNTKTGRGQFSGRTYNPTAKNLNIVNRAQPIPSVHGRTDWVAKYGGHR

CAMK4 = target: T2, CAMK4 (Homo sapiens, UniProt Q16566); conditions: read-out: %Inh CAMK4
T2 sequence (Q16566 1-473): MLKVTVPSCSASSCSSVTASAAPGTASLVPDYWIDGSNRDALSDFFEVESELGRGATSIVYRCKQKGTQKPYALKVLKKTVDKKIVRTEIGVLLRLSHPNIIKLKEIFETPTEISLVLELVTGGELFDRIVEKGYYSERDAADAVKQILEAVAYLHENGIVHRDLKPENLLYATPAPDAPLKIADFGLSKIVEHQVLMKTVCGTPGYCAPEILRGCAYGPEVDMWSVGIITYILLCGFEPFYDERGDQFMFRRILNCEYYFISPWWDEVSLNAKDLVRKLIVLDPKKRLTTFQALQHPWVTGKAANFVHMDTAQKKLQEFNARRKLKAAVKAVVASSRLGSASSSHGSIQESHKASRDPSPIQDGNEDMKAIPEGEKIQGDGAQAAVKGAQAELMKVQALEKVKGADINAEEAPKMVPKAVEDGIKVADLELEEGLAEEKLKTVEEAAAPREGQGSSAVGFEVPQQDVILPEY

EPHA3 = target: T3, EPHA3 (Homo sapiens, UniProt P29320); conditions: read-out: %Inh EPHA3
T3 sequence (P29320 21-983): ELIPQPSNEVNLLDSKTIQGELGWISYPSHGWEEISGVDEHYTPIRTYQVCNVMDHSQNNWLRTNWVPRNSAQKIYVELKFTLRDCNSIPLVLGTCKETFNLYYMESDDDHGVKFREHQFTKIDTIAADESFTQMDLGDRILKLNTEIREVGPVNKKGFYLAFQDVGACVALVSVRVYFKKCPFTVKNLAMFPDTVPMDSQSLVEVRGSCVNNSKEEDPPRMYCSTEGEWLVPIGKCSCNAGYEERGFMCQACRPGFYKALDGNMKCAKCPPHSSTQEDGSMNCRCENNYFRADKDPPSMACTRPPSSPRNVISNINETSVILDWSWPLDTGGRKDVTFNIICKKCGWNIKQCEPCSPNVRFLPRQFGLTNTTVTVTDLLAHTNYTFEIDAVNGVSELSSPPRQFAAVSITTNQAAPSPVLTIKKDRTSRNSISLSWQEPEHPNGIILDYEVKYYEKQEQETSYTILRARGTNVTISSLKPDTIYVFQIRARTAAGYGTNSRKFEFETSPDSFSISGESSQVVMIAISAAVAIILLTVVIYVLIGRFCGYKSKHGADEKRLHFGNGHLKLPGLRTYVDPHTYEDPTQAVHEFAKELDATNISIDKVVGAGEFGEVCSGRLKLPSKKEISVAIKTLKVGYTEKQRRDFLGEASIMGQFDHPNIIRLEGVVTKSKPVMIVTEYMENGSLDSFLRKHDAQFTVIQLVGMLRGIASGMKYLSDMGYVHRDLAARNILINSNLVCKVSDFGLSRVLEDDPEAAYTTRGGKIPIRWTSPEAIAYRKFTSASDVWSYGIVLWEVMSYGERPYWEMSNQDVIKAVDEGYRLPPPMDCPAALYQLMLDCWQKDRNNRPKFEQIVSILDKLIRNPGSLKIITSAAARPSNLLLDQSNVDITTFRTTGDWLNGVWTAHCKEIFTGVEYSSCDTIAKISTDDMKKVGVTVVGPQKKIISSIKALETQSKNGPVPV

IRAK4 = target: T4, IRAK4 (Homo sapiens, UniProt Q9NWZ3); conditions: read-out: %Inh IRAK4
T4 sequence (Q9NWZ3 1-460): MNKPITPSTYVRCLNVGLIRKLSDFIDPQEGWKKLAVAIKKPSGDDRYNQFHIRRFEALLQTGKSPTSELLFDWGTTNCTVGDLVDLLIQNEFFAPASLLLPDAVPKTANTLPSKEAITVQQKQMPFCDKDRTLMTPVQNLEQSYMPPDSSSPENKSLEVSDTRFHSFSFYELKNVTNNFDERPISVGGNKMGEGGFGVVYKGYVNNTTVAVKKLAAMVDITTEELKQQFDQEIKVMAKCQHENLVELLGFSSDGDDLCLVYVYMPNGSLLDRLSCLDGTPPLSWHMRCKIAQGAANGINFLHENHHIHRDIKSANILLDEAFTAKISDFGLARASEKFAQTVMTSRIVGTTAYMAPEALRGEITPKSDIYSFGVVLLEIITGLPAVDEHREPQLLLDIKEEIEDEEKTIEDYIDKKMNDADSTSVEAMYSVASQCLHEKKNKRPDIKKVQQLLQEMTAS

HCK = HCK (Homo sapiens, UniProt P08631); conditions: read-out: %Inh HCK
Chain of HCK (P08631 whole entry): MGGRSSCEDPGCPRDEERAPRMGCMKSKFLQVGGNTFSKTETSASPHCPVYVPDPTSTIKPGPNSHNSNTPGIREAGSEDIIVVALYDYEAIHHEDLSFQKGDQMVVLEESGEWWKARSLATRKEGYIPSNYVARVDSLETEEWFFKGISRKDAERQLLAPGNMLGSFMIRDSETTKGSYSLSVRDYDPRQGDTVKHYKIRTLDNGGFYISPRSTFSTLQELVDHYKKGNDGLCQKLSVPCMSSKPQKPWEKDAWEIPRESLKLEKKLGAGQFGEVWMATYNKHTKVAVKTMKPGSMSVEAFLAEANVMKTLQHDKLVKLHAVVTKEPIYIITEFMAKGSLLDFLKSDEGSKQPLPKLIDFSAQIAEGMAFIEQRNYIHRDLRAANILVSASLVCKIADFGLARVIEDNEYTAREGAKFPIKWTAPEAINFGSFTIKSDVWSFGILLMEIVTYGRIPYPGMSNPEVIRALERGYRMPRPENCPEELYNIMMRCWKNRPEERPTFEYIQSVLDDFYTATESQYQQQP

BMPR1B = BMPR1B (Homo sapiens, UniProt O00238); conditions: read-out: %Inh BMPR1B
Chain of BMPR1B (O00238 14-502): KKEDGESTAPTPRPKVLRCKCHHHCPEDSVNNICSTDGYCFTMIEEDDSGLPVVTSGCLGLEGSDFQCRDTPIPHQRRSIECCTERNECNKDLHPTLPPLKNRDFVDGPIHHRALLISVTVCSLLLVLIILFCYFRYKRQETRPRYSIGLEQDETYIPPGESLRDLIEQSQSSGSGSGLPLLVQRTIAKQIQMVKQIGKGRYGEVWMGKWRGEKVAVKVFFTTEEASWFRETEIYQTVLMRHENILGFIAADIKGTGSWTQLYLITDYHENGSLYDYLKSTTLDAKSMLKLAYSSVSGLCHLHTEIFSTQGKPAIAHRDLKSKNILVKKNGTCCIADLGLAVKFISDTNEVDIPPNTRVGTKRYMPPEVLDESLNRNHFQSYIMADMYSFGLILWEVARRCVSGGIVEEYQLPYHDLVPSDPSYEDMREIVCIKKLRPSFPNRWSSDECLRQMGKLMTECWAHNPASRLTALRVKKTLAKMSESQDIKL

FAK = FAK (Homo sapiens, UniProt Q05397); conditions: read-out: %Inh FAK
Chain of FAK (Q05397 whole entry): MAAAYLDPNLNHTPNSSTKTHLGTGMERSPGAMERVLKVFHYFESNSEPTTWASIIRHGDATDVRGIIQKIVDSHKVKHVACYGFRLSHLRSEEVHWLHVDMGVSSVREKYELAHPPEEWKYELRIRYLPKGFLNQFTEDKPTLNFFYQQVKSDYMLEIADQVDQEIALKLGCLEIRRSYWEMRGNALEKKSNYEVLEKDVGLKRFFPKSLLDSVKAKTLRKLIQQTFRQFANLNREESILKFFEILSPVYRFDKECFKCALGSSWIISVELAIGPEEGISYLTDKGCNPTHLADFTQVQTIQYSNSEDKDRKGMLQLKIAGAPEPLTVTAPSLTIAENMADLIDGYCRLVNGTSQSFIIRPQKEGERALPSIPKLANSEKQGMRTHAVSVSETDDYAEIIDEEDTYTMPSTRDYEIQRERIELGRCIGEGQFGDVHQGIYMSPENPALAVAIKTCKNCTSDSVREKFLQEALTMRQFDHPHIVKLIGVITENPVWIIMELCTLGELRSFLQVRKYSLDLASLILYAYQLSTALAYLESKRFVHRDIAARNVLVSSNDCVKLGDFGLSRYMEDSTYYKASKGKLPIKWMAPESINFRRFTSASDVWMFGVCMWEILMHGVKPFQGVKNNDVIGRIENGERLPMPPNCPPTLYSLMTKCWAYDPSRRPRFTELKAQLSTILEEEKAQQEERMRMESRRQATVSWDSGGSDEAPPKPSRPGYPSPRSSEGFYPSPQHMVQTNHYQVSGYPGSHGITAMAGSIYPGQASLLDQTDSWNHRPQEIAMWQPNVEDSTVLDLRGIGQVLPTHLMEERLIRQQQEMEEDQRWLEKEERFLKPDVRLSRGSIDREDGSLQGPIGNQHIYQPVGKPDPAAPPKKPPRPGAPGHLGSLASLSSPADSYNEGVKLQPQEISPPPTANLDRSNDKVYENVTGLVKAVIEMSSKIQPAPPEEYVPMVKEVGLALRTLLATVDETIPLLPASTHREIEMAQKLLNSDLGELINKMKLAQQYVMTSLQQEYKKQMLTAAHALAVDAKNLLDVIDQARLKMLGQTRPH

Chain of ABL1-nonphosphorylated (P00519 whole entry): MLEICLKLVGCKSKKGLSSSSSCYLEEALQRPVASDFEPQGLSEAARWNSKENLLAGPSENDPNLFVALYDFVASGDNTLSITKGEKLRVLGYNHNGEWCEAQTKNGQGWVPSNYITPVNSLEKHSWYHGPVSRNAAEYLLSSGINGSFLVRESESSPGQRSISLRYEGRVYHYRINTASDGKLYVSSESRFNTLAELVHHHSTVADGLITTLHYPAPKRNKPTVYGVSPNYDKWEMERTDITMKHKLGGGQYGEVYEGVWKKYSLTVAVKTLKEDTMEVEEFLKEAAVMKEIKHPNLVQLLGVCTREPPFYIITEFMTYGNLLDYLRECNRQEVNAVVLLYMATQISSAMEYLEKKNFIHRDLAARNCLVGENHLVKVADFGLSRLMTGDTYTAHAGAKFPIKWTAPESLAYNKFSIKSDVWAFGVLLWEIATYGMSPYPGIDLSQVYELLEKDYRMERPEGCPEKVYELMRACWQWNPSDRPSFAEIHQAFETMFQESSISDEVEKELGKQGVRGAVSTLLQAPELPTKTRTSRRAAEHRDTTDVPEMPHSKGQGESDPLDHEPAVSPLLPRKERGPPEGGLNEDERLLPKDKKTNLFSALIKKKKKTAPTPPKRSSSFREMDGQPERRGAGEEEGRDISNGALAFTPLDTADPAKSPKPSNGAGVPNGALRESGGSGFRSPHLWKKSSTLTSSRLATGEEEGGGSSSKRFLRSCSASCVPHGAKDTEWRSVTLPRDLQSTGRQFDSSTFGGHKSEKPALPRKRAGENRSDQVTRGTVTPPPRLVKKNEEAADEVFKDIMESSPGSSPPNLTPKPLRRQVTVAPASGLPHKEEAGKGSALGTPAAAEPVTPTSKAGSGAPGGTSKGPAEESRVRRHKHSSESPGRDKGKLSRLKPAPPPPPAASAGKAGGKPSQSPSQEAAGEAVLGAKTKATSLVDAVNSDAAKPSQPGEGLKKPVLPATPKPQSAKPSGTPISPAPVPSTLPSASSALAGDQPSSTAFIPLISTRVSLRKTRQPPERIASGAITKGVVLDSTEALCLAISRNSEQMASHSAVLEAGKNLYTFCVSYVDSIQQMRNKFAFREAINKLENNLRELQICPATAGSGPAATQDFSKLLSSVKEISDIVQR

Row | SMILES | inhibition at 1 µM (ABL1-nonphosphorylated) | inhibition at 1 µM (MAK) | inhibition at 1 µM (CAMK4) | inhibition at 1 µM (EPHA3) | inhibition at 1 µM (IRAK4) | inhibition at 1 µM (HCK) | inhibition at 1 µM (BMPR1B) | inhibition at 1 µM (FAK)
1 | Cn1cc(-c2cnc(N)c3c(-c4ccc5c(c4)CCN5C(=O)Cc4ccccc4)csc23)cn1 [UNC10225012A] | 99.7% | 0% | 0% | 0% | 0% | 86% | 6% | 7%
2 | CS(=O)(=O)Cc1ccc(Nc2nccc(-c3c(-c4cccc(NC(=O)C5CCCCC5)c4)nn4ncccc34)n2)cc1 [UNC10225159A] | 8% | 0% | 0% | 16% | 25% | 1% | 19% | 0%
3 | Cc1ccc(NC(=O)Nc2cccc(C(F)(F)F)c2)cc1 [UNC10225187A] | 49% | 0% | 5% | 0% | 0% | 0% | 0% | 1%
4 | COc1cccc(OC)c1C(=O)Nc1cccc(-c2nn3ccccc3c2-c2ccnc(Nc3cccc(F)c3)n2)c1 [UNC10225310A] | 28% | 14% | 0% | 0% | 0% | 30% | 21% | 1%
5 | O=c1cc(N2CCOCC2)nc2n(Cc3cccc(Cl)c3Cl)c(C3CC3)nn12 [UNC10225469A] | 28% | 0% | 5% | 0% | 0% | 0% | 0% | 0%
